Results published in US5863550A, “Cholestasis ameliorant” (Tokyo Tanabe Company Limited, priority 1993, dated 1999).
Entries after “also recorded” stand apart in the source; their conditions may differ.

Legend:
[1] = in words, background; cited from earlier work
[2] = system: intrahepatic cholestasis; conditions: cited from earlier work
[3] = Solubility in water; type: physicochemical; conditions: in words
[4] = Acute toxicity (LD50), intravenous, beagle dogs; parameters: species or system 8 to 11-month old beagle dogs; conditions: dog, in vivo, both sexes
Experimental: (§1) The acute toxicity (LD50) of intravenously administered tauroursodeoxycholic acid was evaluated in 6-week old male and female CD rats and 8 to 11-month old male and female beagle dogs. The LD50 was 600 to 800 mg/kg in male rats and 800 to 1000 mg/kg in female rats.

[5] = Acute toxicity (LD50), intravenous, rats; parameters: species or system 6-week old CD rats; conditions: rat, in vivo
Experimental: as §1

[6] = system: hepatic injury induced by α-naphthylisothiocyanate (ANIT); experiment: Protective effect against hepatic injury in mice (ANIT); type: in vivo, male ICR mice
Experimental: Tauroursodeoxycholic acid was administered to male ICR mice via their caudal veins at a dose within a range of 100 to 1200μ mole/kg two hours before and two hours after an administration of α-naphthylisothiocyanate (ANIT) as a single dose of 80 mg/kg. Serum bilirubin concentration, total bile acid concentration and LDH activity were measured two days after the ANIT administration.

[7] = system: patients with cholestasis; experiment: Clinical results of tauroursodeoxycholic acid injection (patients with cholestasis / jaundice); type: in vivo, human (patients)
Experimental: Since tylosis of the gallbladder walls was observed by abdominal ultrasonic imaging and there were severe icteric symptoms, this case was diagnosed as cholestasis due to drug-induced hepatopathy.
At a stage when moderate jaundice still remained (total bilirubin: 6.9 mg/dl) and no improvement had been noted in subjective symptoms such as skin itching and epigastric discomfort, tauroursodeoxycholic acid was intravenously injected once a day at a dose of 100 mg for 14 days. As a result, the total bilirubin level, GOT and GPT were decreased to 2.1 mg/dl, 45 U/l and 36 U/l, respectively, and the icteric symptoms as well as the subjective symptoms such as skin itching and epigastric discomfort were disappeared.
[…] After the patient came back to Japan on April 5 and was hospitalized, tauroursodeoxycholic acid was intravenously administered once a day at a dose of 100 mg for 14 days.
At a stage when moderate jaundice was observed (total bilirubin: 9.0 mg/dl, GOT: 838 U/l, GPT 451 U/l), tauroursodeoxycholic acid was administered once a day at a dose of 300 mg by intravenous drip infusion for 14 days.
This patient was diagnosed to suffer from cholestasis due to acute viral hepatitis based on results of immuno-serological test including GOT of 11600 U/l, GPT of 6300 U/l and total bilirubin level of 7.7 mg/dl and HBV positive result of virological test as well as severe icteric symptoms.
At a stage when jaundice was still severe (total bilirubin: 16.19 mg/dl), tauroursodeoxycholic acid was administered once a day at a dose of 300 mg by intravenous drip infusion for 14 days. As a result, the total bilirubin level, GOT and GPT were decreased to 4.4 mg/dl, 48 U/l and 36 U/l, respectively, icteric symptoms were improved from the day after one week of the administration and subjective symptoms such as skin itching and systemic malaise were disappeared by the 10th day of the administration.
This patient began to feel general malaise in late June 1993 and, since jaundice appeared on Jun. 28, they visited a neighboring clinic and received treatment. In spite of that, jaundice was not improved and they referred to our medical institution on July 5. Based on the results of inspections, the patient was diagnosed to suffer cholestasis due to acute viral hepatitis (type B).
Tauroursodeoxycholic acid was administered by intravenous injection once a day at a dose of 600 mg for 18 days from July 8.
This patient noticed jaundice in the middle of May 1993 and consulted a doctor. Their symptom was diagnosed as obstructive jaundice based on images of enlargement of the bilateral intrahepatic bile ducts and 3-4 cm long irregular stenosis in the choledoch observed in endoscopic retrograde cholangiopancreatography (ERCP) and underwent endoscopic […] bile duct drainage (ENBD) on May 31.
Because icteric symptoms were not improved, tauroursodeoxycholic acid was intravenously injected once a day at a dose of 100 mg for 22 days.
This patient was diagnosed to suffer from pancreatic cancer by ERCP. […] Concurrently, icteric symptoms and skin itching were continued. Therefore, tauroursodeoxycholic acid was intravenously injected once a day at a dose of 600 mg for 38 days. As a result, the total bilirubin level was decreased to 3.3 mg/dl, the bile flow was increased from the preadministration level of 230 ml/day to 440 ml/day, and icteric symptoms and skin itching were improved.

[8] = system: bile flow reduction induced by estradiol-17β-D-glucuronide (E-17-G); experiment: Ameliorative effect against cholestasis in rats (E-17-G-induced reduction of bile flow); type: in vivo, female SD rats
Experimental: An extra external-biliary fistula was developed in female SD rats under anesthesia and, after bile collection for 30 minutes, estradiol-17β-D-glucuronide (E-17-G) was administered via their femoral veins as a single dose of 10 μ mole/kg. Immediately after the administration, tauroursodeoxycholic acid was continuously administered over two hours via the femoral veins at a rate of 0.6 μ mole/min/100 g body weight, and the bile flow was measured serially.

[9] = 100 to 1200 μ mole/kg via caudal veins two hours before and two hours after ANIT 80 mg/kg, two days after ANIT
[10] = Example 2 patient, 100 mg i.v. once a day for 14 days, from the day after three days of the administration
[11] = Example 5 patient, 600 mg i.v. once a day for 18 days
[12] = Example 6 patient, obstructive jaundice, ENBD, 100 mg i.v. once a day for 22 days, after one week

Q: Which solubility [1] does the source give for `C[C@H](CCC(=O)O)[C@H]1CC[C@H]2[C@@H]3[C@@H](O)C[C@@H]4C[C@H](O)CC[C@]4(C)[C@H]3CC[C@]12C` [ursodeoxycholic acid] here?
A: very low

Q: And the “efficacy against intrahepatic cholestasis” value ([2]; ursodeoxycholic acid preparations, recently reported in Japan and other countries)?
A: very high efficacy

Q: What does the source list for `C[C@H](CCC(=O)NCCS(=O)(=O)O)[C@H]1CC[C@H]2[C@@H]3[C@@H](O)C[C@@H]4C[C@H](O)CC[C@]4(C)[C@H]3CC[C@]12C` [tauroursodeoxycholic acid]?
A: solubility in water [3]: better solubility in water as compared with ursodeoxycholic acid; also recorded: high solubility in water; also recorded: excellent solubility in water; LD50 [4]: 300 to 600 mg/kg; LD50 ([5]; female rats): 800 to 1000 mg/kg; LD50 ([5]; male rats): 600 to 800 mg/kg; increase of LDH activity induced by ANIT [6, 9]: inhibited; increase of serum bilirubin concentration induced by ANIT [6, 9]: inhibited; increase of total bile acid concentration induced by ANIT [6, 9]: inhibited; protective effect of hepatocyte ([6]; general conclusion): protective effect of hepatocyte; total bilirubin level ([7]; Example 1 patient, drug-induced hepatopathy, 100 mg i.v. once a day for 14 days, before: 6.9 mg/dl): 2.1 mg/dL; GOT ([7]; Example 1 patient, drug-induced hepatopathy, 100 mg i.v. once a day for 14 days, peak before: 548 U/l): 45 U/l; GPT ([7]; Example 1 patient, drug-induced hepatopathy, 100 mg i.v. once a day for 14 days, peak before: 664 U/l): 36 U/l; icteric symptoms and subjective symptoms such as skin itching and epigastric discomfort ([7]; Example 1 patient, 100 mg i.v. once a day for 14 days): disappeared; total bile acid level ([7]; Example 2 patient, acute viral hepatitis, 100 mg i.v. once a day for 14 days, before: 21 μmole/l): 12 µmol/L; total bilirubin level ([7]; Example 2 patient, acute viral hepatitis, 100 mg i.v. once a day for 14 days, before: 31.4 mg/dl): 13.7 mg/dL; icteric symptoms [7, 10]: improvement of icteric symptoms; subjective symptoms such as skin itching and anorexia [7, 10]: disappeared; total bilirubin level ([7]; Example 3 patient, drug-induced hepatopathy, 300 mg once a day i.v. drip infusion for 14 days, before: 9.0 mg/dl): 2.8 mg/dL; icteric symptoms due to cholestasis ([7]; Example 3 patient, 300 mg once a day i.v. drip infusion for 14 days): improvement in icteric symptoms; GPT ([7]; Example 3 patient, 300 mg once a day i.v. drip infusion for 14 days, before: 451 U/l): 145 U/l; GOT ([7]; Example 3 patient, 300 mg once a day i.v. drip infusion for 14 days, before: 838 U/l): 171 U/l; total bilirubin level, GOT and GPT after completion of administration ([7]; Example 3 patient, two weeks after the completion of 300 mg once a day i.v. drip infusion for 14 days): no increase was observed; total bilirubin level ([7]; Example 4 patient, acute viral hepatitis (HBV positive), 300 mg once a day i.v. drip infusion for 14 days, before: 16.19 mg/dl): 4.4 mg/dL; GPT ([7]; Example 4 patient, 300 mg once a day i.v. drip infusion for 14 days, at diagnosis: 6300 U/l): 36 U/l; GOT ([7]; Example 4 patient, 300 mg once a day i.v. drip infusion for 14 days, at diagnosis: 11600 U/l): 48 U/l; subjective symptoms such as skin itching and systemic malaise ([7]; Example 4 patient, 300 mg once a day i.v. drip infusion, by the 10th day of the administration): disappeared; icteric symptoms ([7]; Example 4 patient, 300 mg once a day i.v. drip infusion, from the day after one week of the administration): improved; total bilirubin level ([7]; Example 5 patient, acute viral hepatitis (type B), 600 mg i.v. once a day, after 4 days): reduced by half; total bilirubin level ([7]; Example 5 patient, acute viral hepatitis (type B), 600 mg i.v. once a day, after one week): almost within the normal range; icteric symptoms and general malaise [7, 11]: disappeared; other parameters related to the liver function [7, 11]: improved; jaundice and skin itching ([7]; Example 6 patient, obstructive jaundice, ENBD, 100 mg i.v. once a day for 22 days): improvement of jaundice and skin itching; bile flow [7, 12]: apparent increase of bile flow; total bilirubin level [7, 12]: decrease of the total bilirubin level; icteric symptoms and skin itching ([7]; Example 7 patient, pancreatic cancer, PTCD, 600 mg i.v. once a day for 38 days): improved; total bilirubin level ([7]; Example 7 patient, pancreatic cancer, PTCD, 600 mg i.v. once a day for 38 days, before: around 15 mg/dl): 3.3 mg/dL; bile flow ([7]; Example 7 patient, pancreatic cancer, PTCD, 600 mg i.v. once a day for 38 days, preadministration 230 ml/day): 440 mL/day; ameliorative effect against cholestasis ([7]; general finding, patients with liver diseases): ameliorative effect against cholestasis; infusion rate at or above which the reduction of the bile flow induced by E-17-G was inhibited ([8]; female SD rats, E-17-G 10 μ mole/kg i.v., continuous infusion over two hours via femoral veins): ≥ 0.3 μ mole/min/100 g body weight; inhibition of the reduction of bile flow compared with free ursodeoxycholic acid ([8]; female SD rats, E-17-G 10 μ mole/kg i.v., comparator free ursodeoxycholic acid): more marked than that of free ursodeoxycholic acid; cholagogue effect ([8]; general conclusion): exerts cholagogue effect

Q: Which “efficacy in the treatment of intrahepatic cholestasis” value ([2]; steroid and phenobarbital preparations currently used) does the source give for `CCC1(c2ccccc2)C(=O)NC(=O)NC1=O` [phenobarbital] here?
A: a certain level of, but often insufficient, efficacy
